Laboratory results taken from US9440978B2, “Imidazolo-, oxazolo-, and thiazolopyrimidine modulators of TRPV1” (Janssen Pharmaceutica NV, priority 2007, dated 2016).
Where a name gives a salt, the structure may show the parent alone.

How the values were obtained:
human TRPV1 = target: T1, human TRPV1 (Homo sapiens, UniProt Q8NER1); assay: Block of capsaicin-induced Ca2+ influx, human assay (hTRPV1/HEK293, FLIPR); type: cell-based; conditions: HEK293 cells transfected with human TRPV1; 150 nM capsaicin challenge; mean; > value = solubility limit in assay medium
T1 construct: expressed in transfected cells; host or cells: HEK293
Description: (§1) HEK293 cells were transfected with human TRPV1 cloned in pcDNA3.1zeo(+) using the Effectene non-liposomal lipid based transfection kit (Qiagen) (hTRPV1/HEK293). hTRPV1/HEK293 cells were routinely grown as monolayers under selection in zeocin (200 μg/mL; Invitrogen) in Dulbecco's Modified Eagle Medium (DMEM, Gibco BRL) supplemented with 10% fetal bovine serum, and penicillin/streptomycin (50 units/mL) in 5% CO2 at 37° C. Cells were passaged frequently, every 3-5 days, to avoid overgrowth, depletion of essential medium components, or acidic medium exposure. Cells were passaged using a brief wash in 0.05% trypsin with 1 mM EDTA, followed by dissociation in divalent-free phosphate-buffered saline (Hyclone #SH30028.02). […] The assay buffer was composed of 130 mM NaCl, 2 mM KCl, 2 mM MgCl2, 10 mM HEPES, 5 mM glucose, and either 2 mM or 20 μM CaCl2. On the day of the experiment, the culture medium was replaced with 2 mM calcium assay buffer using an automated plate washer (ELx405; Biotek, VT). […] After loading the cells, the dye solution was replaced with 50 μL/well of 20 μM calcium assay buffer using the ELx405 plate washer. Test compounds (50 μL/well) were added to the plate and incubated for 30 min. Intracellular Ca^2+ levels were subsequently assayed using a Fluorometric Imaging Plate Reader (FLIPR™ instrument, Molecular Devices, CA) to simultaneously monitor Fluo-3 fluorescence in all wells (λexcitation=488 nm, λemission=540 nm) during challenge with agonist (capsaicin). The IC50 values were determined. […] The contents of the wells were mixed 3 times (40 μL mix volume) immediately after the additions were made. Concentration-dependence of block was determined by exposing each well of cells in duplicate rows of a 96-well plate to a serial dilution of test compound. The concentration series usually started at 10 μM with a three-fold serial decrement in concentration. The magnitude of the capsaicin response was determined by measuring the change in fluo3 fluorescence before and 100 seconds after the addition of the agonist. Data were analyzed using a non-linear regression program (Origin; OriginLab, MA).
(§2) IC50 values shown are the average (mean) of the results obtained. […] Compounds were tested as in the free base, trifluoroacetic acid salt, or hydrochloride salt form.

rat TRPV1 = target: T2, rat TRPV1 (Rattus norvegicus, UniProt O35433); assay: Block of capsaicin-induced Ca2+ influx, rat assay (rTRPV1/HEK293, FLIPR); type: cell-based; conditions: HEK293 cells transfected with rat TRPV1; capsaicin challenge; mean; > value = solubility limit in assay medium; read-out: Rat IC50
T2 construct: expressed in transfected cells; host or cells: HEK293
Description: as §1
This assay was performed similarly to the human assay described above, but using HEK293 cells transfected with rat TRPV1 (rTRPV1/HEK293).
as §2

T2 sequence (O35433 whole entry): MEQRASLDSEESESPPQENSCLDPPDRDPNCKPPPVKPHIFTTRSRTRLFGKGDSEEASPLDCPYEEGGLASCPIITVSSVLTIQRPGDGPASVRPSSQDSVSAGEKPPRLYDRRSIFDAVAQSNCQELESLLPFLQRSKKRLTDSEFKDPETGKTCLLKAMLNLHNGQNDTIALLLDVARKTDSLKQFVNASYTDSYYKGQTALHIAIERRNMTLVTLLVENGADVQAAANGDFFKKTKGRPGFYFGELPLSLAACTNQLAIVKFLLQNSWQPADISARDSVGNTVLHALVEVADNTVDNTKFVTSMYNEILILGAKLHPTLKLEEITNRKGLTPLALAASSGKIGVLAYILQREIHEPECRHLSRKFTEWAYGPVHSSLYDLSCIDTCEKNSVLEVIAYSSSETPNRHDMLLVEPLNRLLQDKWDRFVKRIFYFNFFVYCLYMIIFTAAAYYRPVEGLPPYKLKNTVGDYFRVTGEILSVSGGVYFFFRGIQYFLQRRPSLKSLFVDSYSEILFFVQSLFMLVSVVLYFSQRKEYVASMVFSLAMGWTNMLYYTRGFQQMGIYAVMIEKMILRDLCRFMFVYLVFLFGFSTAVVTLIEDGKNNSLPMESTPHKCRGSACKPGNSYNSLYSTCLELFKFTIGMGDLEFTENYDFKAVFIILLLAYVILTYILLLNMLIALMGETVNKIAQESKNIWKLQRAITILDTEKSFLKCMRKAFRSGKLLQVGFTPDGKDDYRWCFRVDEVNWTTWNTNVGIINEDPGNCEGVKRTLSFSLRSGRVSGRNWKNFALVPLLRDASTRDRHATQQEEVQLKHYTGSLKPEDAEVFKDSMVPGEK
T1 sequence (Q8NER1 whole entry): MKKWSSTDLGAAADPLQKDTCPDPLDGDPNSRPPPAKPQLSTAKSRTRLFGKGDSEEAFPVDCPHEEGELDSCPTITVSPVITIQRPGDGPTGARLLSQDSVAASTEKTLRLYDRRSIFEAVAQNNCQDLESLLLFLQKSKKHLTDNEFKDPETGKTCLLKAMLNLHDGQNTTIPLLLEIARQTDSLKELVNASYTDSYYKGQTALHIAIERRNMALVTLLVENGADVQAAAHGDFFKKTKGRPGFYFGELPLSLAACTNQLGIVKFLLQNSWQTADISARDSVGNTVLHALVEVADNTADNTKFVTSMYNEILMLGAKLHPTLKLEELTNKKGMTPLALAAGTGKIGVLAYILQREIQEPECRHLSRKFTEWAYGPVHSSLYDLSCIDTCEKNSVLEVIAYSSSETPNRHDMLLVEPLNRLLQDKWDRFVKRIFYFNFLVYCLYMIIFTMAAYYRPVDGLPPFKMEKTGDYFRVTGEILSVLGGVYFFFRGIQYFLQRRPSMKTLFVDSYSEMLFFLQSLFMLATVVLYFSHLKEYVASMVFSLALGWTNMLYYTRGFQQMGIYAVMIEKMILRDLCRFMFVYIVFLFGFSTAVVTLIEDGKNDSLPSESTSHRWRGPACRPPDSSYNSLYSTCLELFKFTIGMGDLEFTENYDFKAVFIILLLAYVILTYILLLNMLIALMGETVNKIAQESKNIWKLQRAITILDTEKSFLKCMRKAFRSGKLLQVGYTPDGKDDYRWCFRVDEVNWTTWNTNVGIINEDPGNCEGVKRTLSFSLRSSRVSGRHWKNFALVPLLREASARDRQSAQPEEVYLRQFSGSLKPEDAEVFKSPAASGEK

| IC50 (human TRPV1) [nM] | IC50 (rat TRPV1) [nM] | SMILES |
| --- | --- | --- |
| 72 | 32 | CS(=O)(=O)c1nc(Nc2ccc(C(F)(F)F)cc2)c2nc(Cc3c(Cl)cccc3Cl)sc2n1 [Example 62, [2-(2,6-Dichloro-benzyl)-5-methanesulfonyl-thiazolo[5,4-d]pyrimidin-7-yl]-(4-trifluoromethyl-phenyl)-amine] |
| > 6670 | 3560 | FC(F)(F)c1ccc(Nc2nc(N3CCOCC3)nc3sc(Cc4c(Cl)cccc4Cl)nc23)cc1 [Example 63, [2-(2,6-Dichloro-benzyl)-5-morpholin-4-yl-thiazolo[5,4-d]pyrimidin-7-yl]-(4-trifluoromethyl-phenyl)-amine] |
| 466 | 323 | CC1CCCN1c1nc(Nc2ccc(C(F)(F)F)cc2)c2nc(Cc3c(Cl)cccc3Cl)sc2n1 (centres unmarked) [Example 64, [2-(2,6-Dichloro-benzyl)-5-(2-methyl-pyrrolidin-1-yl)-thiazolo[5,4-d]pyrimidin-7-yl]-(4-trifluoromethyl-phenyl)-amine] |
| 461 | 266 | FC(F)(F)c1ccc(Nc2nc(NCCN3CCOCC3)nc3sc(Cc4c(Cl)cccc4Cl)nc23)cc1 [Example 65, 2-(2,6-Dichloro-benzyl)-N^5-(2-morpholin-4-yl-ethyl)-N^7-(4-trifluoromethyl-phenyl)-thiazolo[5,4-d]pyrimidine-5,7-diamine trifluoroacetic acid salt] |
| 249 | 103 | FC(F)(F)c1ccc(Nc2nc(NCC3CC3)nc3sc(Cc4c(Cl)cccc4Cl)nc23)cc1 [Example 66, N^5-Cyclopropylmethyl-2-(2,6-dichloro-benzyl)-N^7-(4-trifluoromethyl-phenyl)-thiazolo[5,4-d]pyrimidine-5,7-diamine] |
| 2320 | 1690 | CC(C)C1CCCN1c1nc(Nc2ccc(C(F)(F)F)cc2)c2nc(Cc3c(Cl)cccc3Cl)sc2n1 (centres unmarked) [Example 68, [2-(2,6-Dichloro-benzyl)-5-(2-isopropyl-pyrrolidin-1-yl)-thiazolo[5,4-d]pyrimidin-7-yl]-(4-trifluoromethyl-phenyl)-amine] |
| 31 | 14 | CC(C)CNc1nc(Nc2ccc(C(F)(F)F)cc2)c2nc(Cc3c(Cl)cccc3Cl)sc2n1 [Example 69, 2-(2,6-Dichloro-benzyl)-N^5-isobutyl-N^7-(4-trifluoromethyl-phenyl)-thiazolo[5,4-d]pyrimidine-5,7-diamine] |
| 310 | 74 | FC(F)(F)c1ccc(Nc2nc(N3CCN(C4CCCC4)CC3)nc3sc(Cc4c(Cl)cccc4Cl)nc23)cc1 [Example 76, [5-(4-Cyclopentyl-piperazin-1-yl)-2-(2,6-dichloro-benzyl)-thiazolo[5,4-d]pyrimidin-7-yl]-(4-trifluoromethyl-phenyl)-amine trifluoroacetic acid salt] |
| 1120 | 4340 | FC(F)(F)c1ccc(Nc2nc(N3CCC(N4CCCC4)CC3)nc3sc(Cc4c(Cl)cccc4Cl)nc23)cc1 [Example 77, [2-(2,6-Dichloro-benzyl)-5-(4-pyrrolidin-1-yl-piperidin-1-yl)-thiazolo[5,4-d]pyrimidin-7-yl]-(4-trifluoromethyl-phenyl)-amine trifluoroacetic acid salt] |
| 316 | 215 | FC(F)(F)c1ccc(Nc2nc(NC3CC3)nc3sc(Cc4c(Cl)cccc4Cl)nc23)cc1 [Example 78, N^5-Cyclopropyl-2-(2,6-dichloro-benzyl)-N^7-(4-trifluoromethyl-phenyl)-thiazolo[5,4-d]pyrimidine-5,7-diamine] |
| 104 | 32 | FC(F)(F)c1ccc(Nc2nc(NC3CCC3)nc3sc(Cc4c(Cl)cccc4Cl)nc23)cc1 [Example 79, N^5-Cyclobutyl-2-(2,6-dichloro-benzyl)-N^7-(4-trifluoromethyl-phenyl)-thiazolo[5,4-d]pyrimidine-5,7-diamine] |
| 136 | 12 | CC(C)CN1CCN(c2nc(Nc3ccc(C(F)(F)F)cc3)c3nc(Cc4c(Cl)cccc4Cl)sc3n2)CC1 [Example 83, [2-(2,6-Dichloro-benzyl)-5-(4-isobutyl-piperazin-1-yl)-thiazolo[5,4-d]pyrimidin-7-yl]-(4-trifluoromethyl-phenyl)-amine trifluoroacetic acid salt] |
| 1070 | 187 | FC(F)(F)c1ccc(Nc2nc(NCc3ccncc3)nc3sc(Cc4c(Cl)cccc4Cl)nc23)cc1 [Example 86, 2-(2,6-Dichloro-benzyl)-N^5-pyridin-4-ylmethyl-N^7-(4-trifluoromethyl-phenyl)-thiazolo[5,4-d]pyrimidine-5,7-diamine trifluoroacetic acid salt] |

More lines, now with the values behind:

| SMILES | IC50 (human TRPV1) [nM] | IC50 (rat TRPV1) [nM] |
| --- | --- | --- |
| FC(F)(F)c1ccc(Nc2ncnc3sc(Cc4cccc(Cl)c4)nc23)cn1 [Example 53, 2-(3-Chlorobenzyl)-N-[6-(trifluoromethyl)pyridin-3-yl][1,3]thiazolo[5,4-d]pyrimidin-7-amine] | 336 | 118 |
| FC(F)(F)c1ccc(Nc2ncnc3sc(Cc4cccc(Cl)c4)nc23)cc1 [Example 54, 2-(3-Chlorobenzyl)-N-[4-(trifluoromethyl)phenyl][1,3]thiazolo[5,4-d]pyrimidin-7-amine] | 252 | 88 |
| Cc1cccc(C)c1Cc1nc2c(Nc3ccccc3)ncnc2s1 [Example 55, 2-(2,6-Dimethylbenzyl)-N-phenyl[1,3]thiazolo[5,4-d]pyrimidin-7-amine] | 3440 | 2860 |
| Cc1cccc(C)c1Cc1nc2c(Nc3ccc(Br)cc3)ncnc2s1 [Example 56, N-(4-Bromophenyl)-2-(2,6-dimethylbenzyl)[1,3]thiazolo[5,4-d]pyrimidin-7-amine] | 714 | 475 |
| Cc1cccc(C)c1Cc1nc2c(Nc3ccc(C(C)(C)C)cc3)ncnc2s1 [Example 57, N-(4-tert-Butylphenyl)-2-(2,6-dimethylbenzyl)[1,3]thiazolo[5,4-d]pyrimidin-7-amine] | 252 | 51 |
| Cc1cccc(C)c1Cc1nc2c(Nc3ccc(C(F)(F)F)cc3)ncnc2s1 [Example 58, 2-(2,6-Dimethylbenzyl)-N-[4-(trifluoromethyl)phenyl][1,3]thiazolo[5,4-d]pyrimidin-7-amine] | 75 | 82 |
| Cc1cccc(C)c1Cc1nc2c(Nc3ccc(C(F)(F)F)nc3)ncnc2s1 [Example 59, 2-(2,6-Dimethylbenzyl)-N-[6-(trifluoromethyl)pyridin-3-yl][1,3]thiazolo[5,4-d]pyrimidin-7-amine] | 139 | 183 |
| Cc1cccc(C)c1Cc1nc2c(Nc3ccc(S(=O)(=O)N4CCOCC4)cc3)ncnc2s1 [Example 60, 2-(2,6-Dimethylbenzyl)-N-[4-(morpholin-4-ylsulfonyl)phenyl][1,3]thiazolo[5,4-d]pyrimidin-7-amine] | 209 | 204 |
| Cc1cccc(C)c1Cc1nc2c(Nc3ccc(S(C)(=O)=O)cc3)ncnc2s1 [Example 61, 2-(2,6-Dimethylbenzyl)-N-[4-(methylsulfonyl)phenyl][1,3]thiazolo[5,4-d]pyrimidin-7-amine] | 496 | 253 |
| CC(C)CN(CC(C)C)c1nc(Nc2ccc(C(F)(F)F)cc2)c2nc(Cc3c(Cl)cccc3Cl)sc2n1 [Example 80, 2-(2,6-Dichloro-benzyl)-N^5,N^5-diisobutyl-N^7-(4-trifluoromethyl-phenyl)-thiazolo[5,4-d]pyrimidine-5,7-diamine] | 4650 | 4040 |
| FC(F)(F)c1ccc(Nc2nc(NCc3ccccn3)nc3sc(Cc4c(Cl)cccc4Cl)nc23)cc1 [Example 84, 2-(2,6-Dichloro-benzyl)-N^5-pyridin-2-ylmethyl-N^7-(4-trifluoromethyl-phenyl)-thiazolo[5,4-d]pyrimidine-5,7-diamine trifluoroacetic acid salt] | 263 | 38 |
| FC(F)(F)c1ccc(Nc2nc(NCc3cccnc3)nc3sc(Cc4c(Cl)cccc4Cl)nc23)cc1 [Example 85, 2-(2,6-Dichloro-benzyl)-N^5-pyridin-3-ylmethyl-N^7-(4-trifluoromethyl-phenyl)-thiazolo[5,4-d]pyrimidine-5,7-diamine trifluoroacetic acid salt] | 433 | 112 |
